Read-outs that look alike come from different tables or passages of the source.
Target: human recombinant P2X7 receptor (Homo sapiens (Human), UniProt Q99572)
Assay: YO-PRO assay: P2X7 receptor antagonistic activity (ATP-induced YO-PRO-1 uptake, FLIPR)
[1] = read-out: IC50 [nM], antagonistic activities with respect to the P2X7 receptor, HEK-293 cells expressing human recombinant P2X7 receptor, YO-PRO-1 fluorescence, ATP 250 μM, 90 minutes, highest concentration 10 μM

human recombinant P2X7 receptor, sequence (Q99572 whole entry): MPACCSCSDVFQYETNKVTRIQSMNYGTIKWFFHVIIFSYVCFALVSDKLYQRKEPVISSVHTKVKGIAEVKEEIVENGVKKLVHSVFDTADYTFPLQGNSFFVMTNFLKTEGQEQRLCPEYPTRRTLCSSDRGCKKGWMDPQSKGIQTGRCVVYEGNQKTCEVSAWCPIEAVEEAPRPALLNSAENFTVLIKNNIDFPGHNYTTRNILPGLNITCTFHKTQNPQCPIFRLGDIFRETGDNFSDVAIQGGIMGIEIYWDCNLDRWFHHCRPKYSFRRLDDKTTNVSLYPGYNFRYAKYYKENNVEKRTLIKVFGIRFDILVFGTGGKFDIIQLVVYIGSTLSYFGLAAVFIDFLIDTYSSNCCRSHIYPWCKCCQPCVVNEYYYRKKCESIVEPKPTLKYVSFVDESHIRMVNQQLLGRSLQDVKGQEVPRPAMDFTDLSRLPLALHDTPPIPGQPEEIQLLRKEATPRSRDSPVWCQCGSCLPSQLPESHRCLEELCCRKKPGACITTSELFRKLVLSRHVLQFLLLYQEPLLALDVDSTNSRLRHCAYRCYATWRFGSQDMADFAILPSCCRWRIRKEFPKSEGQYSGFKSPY

Compound	IC50 [1] [nM]	further results
O=C(NCc1c(Cl)cc(Cl)cc1Br)C1COc2ncccc21 (single isomer, unassigned) [Example 80, 2,3-Dihydro-furo[2,3-b]pyridine-3-carboxylic acid 2-bromo-4,6-dichloro-benzylamide]	4.1	
O=C(NCC(c1cnc(C(F)(F)F)nc1)N1CCOCC1)C1COc2ncccc21 (single isomer, unassigned) [Example 81, 2,3-Dihydro-furo[2,3-b]pyridine-3-carboxylic acid [2-morpholin-4-yl-2-(2-trifluoromethyl-pyrimidin-5-yl)-ethyl]-amide]	7520	
O=C(NCC(c1cnc(C(F)(F)F)nc1)N1CCOCC1)C1COc2ncccc21 (single isomer, unassigned) [Example 82, 2,3-Dihydro-furo[2,3-b]pyridine-3-carboxylic acid [2-morpholin-4-yl-2-(2-trifluoromethyl-pyrimidin-5-yl)-ethyl]-amide]	2230	
[2H]C([2H])([2H])c1cc(Cl)cc(Cl)c1CNC(=O)C1COc2ncccc21 (single isomer, unassigned) [Example 97, 2,3-Dihydro-furo[2,3-b]pyridine-3-carboxylic acid 2,4-dichloro-6-trideuteromethyl-benzylamide]		IC50: 20 nM
[2H]C([2H])([2H])c1cc(Cl)cc(Cl)c1CNC(=O)C1COc2ncccc21 (single isomer, unassigned) [Example 98, 2,3-Dihydro-furo[2,3-b]pyridine-3-carboxylic acid 2,4-dichloro-6-trideuteromethyl-benzylamide]		IC50: 1.8 nM
O=C(NC1CCc2cc(Cl)ccc21)C1COc2ncccc21 (single isomer, unassigned) [Example 99, rac-2,3-Dihydro-furo[2,3-b]pyridine-3-carboxylic acid (5-chloro-indan-1-yl)-amide]		IC50: 301 nM
O=C(NC1CCc2cc(Cl)ccc21)C1COc2ncccc21 (single isomer, unassigned) [Example 100, rac-2,3-Dihydro-furo[2,3-b]pyridine-3-carboxylic acid (5-chloro-indan-1-yl)-amide]		IC50: 59.9 nM
O=C(NC(CO)C1CCCCCC1)C1CCOc2ncccc21 (stereo not shown) [Example 52, 3,4-Dihydro-2H-pyrano[2,3-b]pyridine-4-carboxylic acid (1-cycloheptyl-2-hydroxy-ethyl)-amide]	276	
O=C(NCC(c1cnc(C(F)(F)F)nc1)N1CCC(F)(F)CC1)C1COc2ncccc21 (stereo not shown) [Example 62, 2,3-Dihydro-furo[2,3-b]pyridine-3-carboxylic acid [2-(4,4-difluoro-piperidin-1-yl)-2-(2-trifluoromethyl-pyrimidin-5-yl)-ethyl]-amide]	46.9	
O=C(NC1CC1c1ccccc1)C1COc2ncccc21 (stereo not shown) [Example 64, 2,3-Dihydro-furo[2,3-b]pyridine-3-carboxylic acid (2-phenyl-cyclopropyl)-amide]	4850	
NC(=O)C1CCCCC1NC(=O)C1COc2ncccc21 (stereo not shown) [Example 66, 2,3-Dihydro-furo[2,3-b]pyridine-3-carboxylic acid (2-carbamoyl-cyclohexyl)-amide]	5880	
C[C@@H](NC(=O)C1COc2ncccc21)c1ccc(Cl)cc1Cl (stereo partly drawn) [Example 70, 2,3-Dihydro-furo[2,3-b]pyridine-3-carboxylic acid [(R)-1-(2,4-dichloro-phenyl)-ethyl]-amide]	110	
C[C@@H](NC(=O)C1COc2ncccc21)c1ccc(Cl)cc1Cl (stereo partly drawn) [Example 71, 2,3-Dihydro-furo[2,3-b]pyridine-3-carboxylic acid [(R)-1-(2,4-dichloro-phenyl)-ethyl]-amide]	36.5	
O=C(NCC(c1ccc(C(F)(F)F)cc1)N1CCC(F)(F)CC1)C1COc2ncccc21 (stereo not shown) [Example 78, 2,3-Dihydro-furo[2,3-b]pyridine-3-carboxylic acid [2-(4,4-difluoro-piperidin-1-yl)-2-(4-trifluoromethyl-phenyl)-ethyl]-amide]	122	
O=C(NCC(c1cnc(C(F)(F)F)nc1)N1CCOCC1)C1COc2ncccc21 (stereo not shown) [Example 83, 2,3-Dihydro-furo[2,3-b]pyridine-3-carboxylic acid [2-morpholin-4-yl-2-(2-trifluoromethyl-pyrimidin-5-yl)-ethyl]-amide]	124	
O=C(NCC(c1cnc(C(F)(F)F)nc1)N1CCOCC1)C1COc2ncccc21 (stereo not shown) [Example 84, 2,3-Dihydro-furo[2,3-b]pyridine-3-carboxylic acid [2-morpholin-4-yl-2-(2-trifluoromethyl-pyrimidin-5-yl)-ethyl]-amide]	20.8	
COc1ccc(C(CNC(=O)C2COc3ncccc32)N2CCOCC2)cn1 (stereo not shown) [Example 87, 2,3-Dihydro-furo[2,3-b]pyridine-3-carboxylic acid [2-(6-methoxy-pyridin-3-yl)-2-morpholin-4-yl-ethyl]-amide]	978	
Cc1ccc(C(CNC(=O)C2COc3ncccc32)N2CCOCC2)cn1 (stereo not shown) [Example 90, 2,3-Dihydro-furo[2,3-b]pyridine-3-carboxylic acid [2-(6-methyl-pyridin-3-yl)-2-morpholin-4-yl-ethyl]-amide]	1150	
O=C(NCC(c1cnc(C2CC2)nc1)N1CCOCC1)C1COc2ncccc21 (stereo not shown) [Example 91, 2,3-Dihydro-furo[2,3-b]pyridine-3-carboxylic acid [2-(2-cyclopropyl-pyrimidin-5-yl)-2-morpholin-4-yl-ethyl]-amide]	215	
O=C(NCC(c1ccc(C(F)(F)F)nc1)N1CCOCC1)C1COc2ncccc21 (stereo not shown) [Example 92, 2,3-Dihydro-furo[2,3-b]pyridine-3-carboxylic acid [2-morpholin-4-yl-2-(6-trifluoromethyl-pyridin-3-yl)-ethyl]-amide]	82.2	
O=C(N[C@@H]1CCCc2ccccc21)C1COc2ncccc21 (stereo partly drawn) [Example 107, 2,3-dihydrofuro[2,3-b]pyridine-3-carboxylic acid ((R)-1,2,3,4-tetrahydronaphthalen-1-yl)-amide]	1220	
O=C(N[C@@H]1CCCc2ccccc21)C1COc2ncccc21 (stereo partly drawn) [Example 108, 2,3-dihydrofuro[2,3-b]pyridine-3-carboxylic acid ((R)-1,2,3,4-tetrahydronaphthalen-1-yl)-amide]	191	
O=C(N[C@@H]1CCCc2cccc(Cl)c21)C1COc2ncccc21 (stereo partly drawn) [Example 111, 2,3-Dihydro-furo[2,3-b]pyridine-3-carboxylic acid ((R)-8-chloro-1,2,3,4-tetrahydro-naphthalen-1-yl)-amide]	221	
O=C(N[C@@H]1CCCc2cccc(Cl)c21)C1COc2ncccc21 (stereo partly drawn) [Example 112, 2,3-Dihydro-furo[2,3-b]pyridine-3-carboxylic acid ((R)-8-chloro-1,2,3,4-tetrahydro-naphthalen-1-yl)-amide]	9.5	
O=C(NC1CCc2cccc(Br)c21)C1COc2ncccc21 (stereo not shown) [Example 113, 2,3-Dihydro-furo[2,3-b]pyridine-3-carboxylic acid (7-bromo-indan-1-yl)-amide]	35.9	
O=C1c2c(Cl)cc(Cl)cc2CC1NC(=O)C1COc2ncccc21 (stereo not shown) [Example 116, 2,3-Dihydro-furo[2,3-b]pyridine-3-carboxylic acid (5,7-dichloro-1-oxo-indan-2-yl)-amide]	9010	
(S)-2,3-Dihydro-furo[2,3-b]pyridine-3-carboxylic acid ((1S,2R)-2-hydroxy-indan-1-yl)-amide and (R)-2,3-Dihydro-furo[2,3-b]pyridine-3-carboxylic acid ((1S,2R)-2-hydroxy-indan-1-yl)-amide [Example 65]	3400	
(S)-2,3-Dihydro-furo[2,3-b]pyridine-3-carboxylic acid (R)-indan-1-ylamide and (R)-2,3-Dihydro-furo[2,3-b]pyridine-3-carboxylic acid (R)-indan-1-ylamide [Example 69]		IC50 (read-out: IC50 [nM], antagonistic activities with respect to the P2X7 receptor): 400 nM
